# Experiments:
# [1] = Time course of body weight in streptozotocin-induced diabetic rats; type: in vivo, male SD rats; details: long-term repeated administration, 400 mg/kg/day oral
# Description: (§1) The effects of oral administration of cysteine in diabetic rats were investigated.
# (§2) A second group received tap water similarly.
# (§3) Blood glucose was determined 2 days and 11 weeks after administration of streptozotocin to confirm that the rats were in hyperglycemic condition. Further, body weight was determined periodically during the study period. After 11 weeks, the blood was withdrawn from the abdominal aorta for clinical serum chemical examination. Moreover, to monitor the cataract supervening in diabetes, the rat crystalline lens was periodically examined using a slit lamp.
# rat crystalline lens = experiment: Progression of cataract in streptozotocin-induced diabetic rats (slit lamp, 7 stages); type: in vivo, male SD rats; details: 400 mg/kg/day oral
# Description: as §2, §3
# The progression of cataract was evaluated on the scale of the following 7 stages up to mature cataract.
# 0: No lens opacity at all
# I: Slight opacity of the lens epithelium or small vacuoles in the equatorial region.
# II: Vacuoles multiplying and merging to spread into the cortex.
# III: The vacuoles pervading most of the cortex have begun to disappear.
# IV: The majority of vacuoles have disappeared and the whole cortex is translucent.
# V: Opacity of the lens nucleus.
# VI: Opacity of the whole lens (mature cataract)
# Then, cataract which is a diabetic complication ready to develop in such diabetic animal models was studied by monitoring the rats for 11 weeks.
# The bar graphs in FIG. 1(a) through (f) show the time course of cataract stages. […]
# diabetic rats [2] = experiment: Blood glucose in streptozotocin-induced diabetic rats; type: in vivo, male SD rats; details: cysteine 400 mg/kg/day oral, n = 8-10, normal 220 ± 20
# Description: as §1, §2, §3
# lens sorbitol = experiment: Sorbitol content of the lens in streptozotocin-induced diabetic rats; details: for Sorbitol content of the lens: n = 4-5
# Description: Using male SD rats weighing about 100 g, experimental diabetes was induced by injecting 70 mg/kg of streptozotocin into the caudal vein.
# The rats were divided into 2 groups of 10 individuals. A first group of rats were given a 10% aqueous solution of cysteine in a volume of 0.2 ml/100 g body weight twice daily (cysteine 400 mg/kg/day) by gastric gavage beginning the day before administration of streptozotocin. This group is referred to as the cysteine-treated group. A second group received tap water similarly. This group is referred to as the control group.
# diabetic rats [3] = experiment: Clinical serum chemistry values at week 11 in streptozotocin-induced diabetic rats; type: in vivo, male SD rats; details: 400 mg/kg/day oral
# Description: as §1, §2, §3
smiles,measurement,setting,value
N[C@@H](CS)C(=O)O [cysteine],Effect on body weight gain in diabetic rats,[1],did not affect the body weight gain
same,Progress of cataract compared with the control group,"rat crystalline lens; any observation period (2, 4, 6, 8, 10, 11 weeks), FIG. 1",the progress of cataract was inhibited
same,Effect on progression of cataract (cumulative variance analysis),rat crystalline lens; p<0.0001 vs control,significant retarding effect on the progression of cataract
same,Blood glucose,"diabetic rats [2]; after 11 weeks, control 721 ± 75",767 ± 77 mg/dL
same,Blood glucose,"diabetic rats [2]; after 2 days, control 521 ± 78",559 ± 99 mg/dL
same,"Accumulation of sorbitol in the lens, cysteine-treated vs control group",lens sorbitol; 2 and 3 weeks after streptozotocin,no significant difference
same,Sorbitol content of the lens,"lens sorbitol; after 2 weeks, control 0.996 ± 0.286",1.056 ± 0.166 μmole/lens
same,Sorbitol content of the lens,"lens sorbitol; after 3 weeks, control 1.186 ± 0.164",1.025 ± 0.031 μmole/lens
same,Serum chemical parameters (overall),diabetic rats [3],close to the normal values
same,Total bilirubin,"diabetic rats [3]; n = 8-10, normal 0.2 ± 0.0, control 0.43 ± 0.23",0.28 ± 0.18 mg/dL
same,Uric acid,"diabetic rats [3]; n = 8-10, normal 1.8 ± 0.4, control 2.5 ± 2.5",1.5 ± 0.5 mg/dL
same,γ-GTP,"diabetic rats [3]; n = 8-10, normal 2.4 ± 2.0, control 42.9 ± 31.3",13.4 ± 7.2 U/L
same,Lipid peroxide,"diabetic rats [3]; n = 8-10, normal 3.95 ± 0.53, control 5.40 ± 0.68",4.48 ± 0.56 nmol/dL
same,ALP,"diabetic rats [3]; n = 8-10, normal 48 ± 8, control 83 ± 25",68 ± 26 KAU
same,Total cholesterol,"diabetic rats [3]; n = 8-10, normal 51 ± 6, control 175 ± 76",118 ± 57 mg/dL
same,GPT,"diabetic rats [3]; n = 8-10, normal 61 ± 27, control 450 ± 320",311 ± 184 U/L
same,Neutral lipid,"diabetic rats [3]; n = 8-10, normal 90 ± 25, control 1437 ± 858",645 ± 605 mg/dL
same,GOT,"diabetic rats [3]; n = 8-10, normal 102 ± 42, control 952 ± 1038",495 ± 358 U/L
same,β-lipoprotein,"diabetic rats [3]; n = 8-10, normal 112 ± 13, control 493 ± 233",299 ± 173 mg/dL
same,LAP,"diabetic rats [3]; n = 8-10, normal 199 ± 15, control 297 ± 78",234 ± 66 GRU
same,TTT,"diabetic rats [3]; thymol turbidity test, n = 8-10, normal 0.15 ± 0.05, control 3.94 ± 3.88",1.03 ± 0.90 U
same,ZST,"diabetic rats [3]; zinc sulfate test, n = 8-10, normal 1.2 ± 0.1, control 6.2 ± 4.8",2.6 ± 1.3 U

# From US4794124A, “Therapeutic composition for diabetic complications” (priority 1985, dated 1988)
